In US6673355B1 (priority 1995, dated 2004):
Several values for one entry are separate records, joined by “and”; a condition that tells them apart may be missing. Identical values can stand only once. Entries after “also recorded” stand apart in the source; their conditions may differ. Like-named read-outs stand apart in the source and are kept apart here.

Legend:
[1] = test system: mice; conditions: mouse, in vivo
[2] = test system: CD1 mice; conditions: mouse, in vivo
[3] = test system: CD1 mice ileal mucosa; assay type: cell-based, mouse
[4] = target: SA11 VP6 (Rotavirus A, UniProt P03531); parameters: species or system simian rotavirus SA11; conditions: in vivo
Chain of SA11 VP6 (P03531 whole entry, looked up): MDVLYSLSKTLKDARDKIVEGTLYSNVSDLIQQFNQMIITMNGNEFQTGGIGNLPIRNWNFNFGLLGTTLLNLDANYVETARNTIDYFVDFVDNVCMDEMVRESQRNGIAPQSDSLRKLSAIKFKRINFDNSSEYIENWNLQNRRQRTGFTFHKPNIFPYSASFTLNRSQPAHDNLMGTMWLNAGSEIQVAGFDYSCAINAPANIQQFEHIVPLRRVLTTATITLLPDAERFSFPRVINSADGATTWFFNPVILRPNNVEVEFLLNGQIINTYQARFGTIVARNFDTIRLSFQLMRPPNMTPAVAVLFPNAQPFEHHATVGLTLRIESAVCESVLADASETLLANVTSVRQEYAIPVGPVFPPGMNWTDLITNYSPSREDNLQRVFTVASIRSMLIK

[5] = test system: simian rotavirus SA11; conditions: mouse, in vivo
[6] = test system: murine rotavirus ECwt; conditions: mouse, in vivo
[7] = test system: full-length NSP4; parameters: species or system simian rotavirus SA11; conditions: in vivo, sc
[8] = test system: infectious SA11 rotavirus; conditions: mouse, in vivo
[9] = test system: Balb/C mice; conditions: mouse, in vivo, ip
[10] = in vivo
[11] = test system: insect cells; conditions: cited from earlier work
[12] = test system: 19 day old pups; conditions: mouse, in vivo
[13] = test system: CFTR knock-out mice; conditions: mouse, in vivo
[14] = test system: mice; conditions: mouse, in vivo; cited from earlier work

EIEQVELLKRIYDKLTVQTTGEIDMTKE [NSP4 120-147]
% animals with diarrhea [1]: 88% | animals with diarrhea [1]: 7 out of 8 | animals with severe diarrhea [1]: 5 of 5

DTGRNLGEFKAYPDGFLTCV [NV 464-483]
# responders/total # tested ([2]; ip): 0/10 | % Diarrhea ([2]; ip): 0% | symptoms with control peptides ([2]; ip): No symptoms

C=C[C@@]1(C)CC(=O)[C@]2(O)[C@@]3(C)[C@@H](O)CCC(C)(C)[C@@H]3[C@H](O)[C@H](OC(C)=O)[C@@]2(C)O1 [Forskolin (FSK), forskolin]
▴ISC [3]: 44 ± 0.7 μA/cm^2 and 41 ± 7 μA/cm^2

QS-21
serum antibody titers to VP6 in dams (GMT) [4]: 2×10^3 | Mean diarrhea score [5]: 3.5 and 3.3 | Pups with diarrhea % at indicated DPI: 3 [5]: 100% | Pups with diarrhea % at indicated DPI: 4 [5]: 56% | Pups with diarrhea/total at DPI 2 [5]: (8/12); also recorded: (3/9) | Pups with diarrhea/total at DPI 3 [5]: (12/12); also recorded: (9/9) | Pups with diarrhea/total at DPI 4 [5]: (4/12); also recorded: (5/9) | Pups with diarrhea/total at DPI 7 [5]: (12/12); also recorded: (9/9) | duration of diarrhea [5]: at least two days | Pups with diarrhea % at indicated DPI: 2 ([5]; po): 76% | Pups with diarrhea % at indicated DPI: 3 ([5]; po): 100% | Pups with diarrhea % at indicated DPI: 4 ([5]; po): 33% | Mean diarrhea score [6]: 3.3 | Pups with diarrhea % at indicated DPI: 0-8 [6]: 100% | Pups with diarrhea % at indicated DPI: 2 [6]: 29% | Pups with diarrhea % at indicated DPI: 3 [6]: 100% | Pups with diarrhea % at indicated DPI: 4 [6]: 100% | Pups with diarrhea % at indicated DPI: 5 [6]: 100% | Pups with diarrhea % at indicated DPI: 6 [6]: 86% | Pups with diarrhea % at indicated DPI: 7 [6]: 71% | Pups with diarrhea % at indicated DPI: 8 [6]: 14% | Pups with diarrhea/total at DPI 0-8 [6]: (7/7) | Pups with diarrhea/total at DPI 2 [6]: (2/7) | Pups with diarrhea/total at DPI 3 [6]: (7/7) | Pups with diarrhea/total at DPI 4 [6]: (7/7) | Pups with diarrhea/total at DPI 5 [6]: (7/7) | Pups with diarrhea/total at DPI 6 [6]: (6/7) | Pups with diarrhea/total at DPI 7 [6]: (5/7) | Pups with diarrhea/total at DPI 8 [6]: (1/7) | serum antibody geometric mean titers (GMT) to NSP4 full-length in dams [7]: lacked antibody

TKDEIEKQMDRVVKEMRRQLEMIDKLTTREIEQ [NSP4 90-123]
# responders/total # tested ([2]; ip): 2/10 | % Diarrhea ([2]; ip): 20%

EKLTDLNYTLSVITLMNNTLH [NSP4 2-22]
% pups with diarrhea, 2 days [8]: 63% | % pups with diarrhea, 3 days [8]: 25% | % pups with diarrhea, Total [8]: 100% | pups with diarrhea/total pups, 2 days [8]: (10/16) | pups with diarrhea/total pups, 3 days [8]: (4/16) | pups with diarrhea/total pups, Total [8]: (16/16) | # responders/total # tested ([2]; ip): 0/11 | % Diarrhea ([2]; ip): 0% | symptoms with control peptides ([2]; ip): No symptoms

DKLTTREIEQVELLKRIYDKLT [NSP4 114-135]
% pups with diarrhea, 2 days [8]: 17% | % pups with diarrhea, 3 days [8]: 0% | % pups with diarrhea, Total [8]: 42% | pups with diarrhea/total pups, 2 days [8]: (2/12) | pups with diarrhea/total pups, 3 days [8]: (0/12) | pups with diarrhea/total pups, Total [8]: (5/12) | % Diarrhea [9]: 100% and 80% | time frame of diarrhea induction [2]: about 3 hrs | # responders/total # tested ([2]; ip): 8/12 | % Diarrhea ([2]; ip): 67% | DD50 (50% diarrheal dose) ([2]; ip): 79 nmol | diarrhea typically continued for ([2]; ip): up to 8 hr | weight lower than normal animals [10]: 20-30% | intracellular calcium in insect cells [11]: mobilize intracellular calcium levels | diarrhea [12]: no diarrhea was seen | intestinal fluid accumulation [12]: significant fluid accumulation | % of animals with diarrhea [13]: 80% | increase in mucosal Isc after FSK pretreatment [3]: 64 μA/cm2

C[N+](C)(C)CCOC(N)=O [Carbachol (Cch), carbachol]
Isc with FSK (potentiated effect of FSK) [3]: 64 μA/cm^2 | increase in mucosal Isc after FSK pretreatment [3]: 63 μA/cm2 | ▴ISC [3]: 9 ± 2 μA/cm^2 and 14 ± 4 μA/cm^2

MIDKLTTREI EQVELL KRIYDKLTVQTTGEIDMTKEINQKNVRTLEEWESGKNPYEPKEVTAAM [NSP4 112-175]
enterotoxin activity [14]: has enterotoxin activity in mice
